Laboratory results: patent publication US9980943B2, “Methods of treating muscular dystrophy” (BOARD OF REGENTS OF THE NEVADA SYSTEM OF HIGHER EDUCATION, …, priority 2013, dated 2018)

Key:
Format in all cases: cell-based, mouse
[1] = tested on: α7 integrin (LacZ reporter in α7βgal+/− myoblasts); test: Myoblast α7+/LacZ integrin FDG assay (Burkin assay in myoblasts, 96-well); details: for Burkin Assay in Myoblasts, signal relative to DMSO: α7+/LacZ myoblasts, 96-well
[2] = tested on: α7 integrin (LacZ reporter in α7+/LacZ myotubes); test: Myotube α7 integrin FDG assay (Burkin assay in myotubes, 96-well); details: for Burkin Assay in Myotubes, value relative to DMSO: SU9516 analogs, 96-well, N=3-6
[3] = tested on: β-galactosidase in CMV-LacZ C2C12 myoblasts; test: CMV-LacZ secondary screen in C2C12 myoblasts (β-Gal stabilizing assay); details: for CMV-LACZ in Myoblasts (β-galactosidase activity relative to DMSO): CMV-LacZ C2C12 myoblasts; for CMV-LACZ in Myoblasts, value relative to DMSO: SU9516 analogs, C2C12 CMV-LacZ, N=2
Outline: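 Dose-response runs at 0.5–40 μM (0.5, 1, 5, 10, 20, 40 μM; N=2 per point) used a clonal C2C12 line carrying CMV-LacZ. Cells were assayed as myoblasts or as differentiated myotubes, and β-galactosidase levels were read with the FDG fluorogenic substrate.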

[4] = tested on: β-galactosidase in CMV-LacZ C2C12 myotubes; test: CMV-LacZ secondary screen in C2C12 myotubes (β-Gal stabilizing assay); details: for CMV-LACZ in Myotubes, signal relative to DMSO: C2C12 CMV-LacZ myotubes, fold relative to DMSO; for CMV-LACZ in Myotubes, value relative to DMSO: SU9516 analogs, C2C12 CMV-LacZ, N=2
Outline: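 CMV-LacZ C2C12 line (clonal, FDG-screened); myoblasts/myotubes dosed 0.5–40 μM (0.5, 1, 5, 10, 20, 40 μM); n=2 per point; β-gal stabilization read-out.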

[5] = Mus musculus, Myoblast, 48 h, read-out: Burkin Assay in Myoblasts, value relative to DMSO

With O=c1[nH]c2ccccc2nc1-c1c[nH]c2ccccc12 [MLS001181936-01] the “Burkin Assay in Myoblasts, signal relative to DMSO” value ([1]; 0.5 uM) was 0.8443, the “Burkin Assay in Myoblasts, signal relative to DMSO” value ([1]; 1 uM) was 0.7562 and the “Burkin Assay in Myoblasts, signal relative to DMSO” value ([1]; 5 uM) was 0.8573. For the same molecule, the “Burkin Assay in Myoblasts, signal relative to DMSO” value ([1]; 10 uM) was 0.8219, the “Burkin Assay in Myoblasts, signal relative to DMSO” value ([1]; 20 uM) was 0.51 and the “Burkin Assay in Myoblasts, signal relative to DMSO” value ([1]; 40 uM) was 0.3285. For the same molecule, the “Burkin Assay in Myotubes, α7 integrin LacZ reporter signal relative to DMSO” value ([2]; 0.5 uM) was 0.9197, the “Burkin Assay in Myotubes, α7 integrin LacZ reporter signal relative to DMSO” value ([2]; 1 uM) was 0.7633 and the “Burkin Assay in Myotubes, α7 integrin LacZ reporter signal relative to DMSO” value ([2]; 5 uM) was 0.9856. For the same molecule, the “Burkin Assay in Myotubes, α7 integrin LacZ reporter signal relative to DMSO” value ([2]; 10 uM) was 1.024, the “Burkin Assay in Myotubes, α7 integrin LacZ reporter signal relative to DMSO” value ([2]; 20 uM) was 0.5868 and the “Burkin Assay in Myotubes, α7 integrin LacZ reporter signal relative to DMSO” value ([2]; 40 uM) was 0.7387. The “CMV-LACZ in Myoblasts (β-galactosidase activity relative to DMSO)” value ([3]; 0.5 uM) was 0.8487, the “CMV-LACZ in Myoblasts (β-galactosidase activity relative to DMSO)” value ([3]; 1 uM) was 0.9273 and the “CMV-LACZ in Myoblasts (β-galactosidase activity relative to DMSO)” value ([3]; 5 uM) was 0.7292. For the same molecule, the “CMV-LACZ in Myoblasts (β-galactosidase activity relative to DMSO)” value ([3]; 10 uM) was 0.8296, the “CMV-LACZ in Myoblasts (β-galactosidase activity relative to DMSO)” value ([3]; 20 uM) was 0.7863 and the “CMV-LACZ in Myoblasts (β-galactosidase activity relative to DMSO)” value ([3]; 40 uM) was 0.6130. The “CMV-LACZ in Myotubes, signal relative to DMSO” value ([4]; 0.5 uM) was 1.0705, the “CMV-LACZ in Myotubes, signal relative to DMSO” value ([4]; 1 uM) was 0.9886 and the “CMV-LACZ in Myotubes, signal relative to DMSO” value ([4]; 5 uM) was 0.9246. For the same molecule, the “CMV-LACZ in Myotubes, signal relative to DMSO” value ([4]; 10 uM) was 1.0274, the “CMV-LACZ in Myotubes, signal relative to DMSO” value ([4]; 20 uM) was 0.9020 and the “CMV-LACZ in Myotubes, signal relative to DMSO” value ([4]; 40 uM) was 1.0280.
O=C1Nc2ccccc2/C1=C/c1ccnc2ccccc12 [MLS001182278-01] was tested, and the fold induction at 0.5 µM [1, 5] was 1.21, the fold induction at 1 µM [1, 5] was 1.07 and the fold induction at 5 µM [1, 5] was 1.06. For the same molecule, the fold induction at 10 µM [1, 5] was 1.17, the fold induction at 20 µM [1, 5] was 0.766 and the fold induction at 40 µM [1, 5] was 0.842. For the same molecule, the “Burkin Assay in Myotubes, value relative to DMSO” value ([2]; 0.5 uM) was 1.1969, the “Burkin Assay in Myotubes, value relative to DMSO” value ([2]; 1 uM) was 1.118 and the “Burkin Assay in Myotubes, value relative to DMSO” value ([2]; 5 uM) was 1.402. The “Burkin Assay in Myotubes, value relative to DMSO” value ([2]; 10 uM) was 1.412, the “Burkin Assay in Myotubes, value relative to DMSO” value ([2]; 20 uM) was 0.5653 and the “Burkin Assay in Myotubes, value relative to DMSO” value ([2]; 40 uM) was 0.6488. For the same molecule, the “CMV-LACZ in Myoblasts, value relative to DMSO” value ([3]; 0.5 uM) was 0.7466, the “CMV-LACZ in Myoblasts, value relative to DMSO” value ([3]; 1 uM) was 0.9491 and the “CMV-LACZ in Myoblasts, value relative to DMSO” value ([3]; 5 uM) was 0.9823. The “CMV-LACZ in Myoblasts, value relative to DMSO” value ([3]; 10 uM) was 0.9778, the “CMV-LACZ in Myoblasts, value relative to DMSO” value ([3]; 20 uM) was 1.0519 and the “CMV-LACZ in Myoblasts, value relative to DMSO” value ([3]; 40 uM) was 0.5959. For the same molecule, the “CMV-LACZ in Myotubes, value relative to DMSO” value ([4]; 0.5 uM) was 0.9674, the “CMV-LACZ in Myotubes, value relative to DMSO” value ([4]; 1 uM) was 1.0126 and the “CMV-LACZ in Myotubes, value relative to DMSO” value ([4]; 5 uM) was 1.0327. The “CMV-LACZ in Myotubes, value relative to DMSO” value ([4]; 10 uM) was 1.0297, the “CMV-LACZ in Myotubes, value relative to DMSO” value ([4]; 20 uM) was 1.0224 and the “CMV-LACZ in Myotubes, value relative to DMSO” value ([4]; 40 uM) was 1.1212.
With OC(c1nc2ccc(F)cc2[nH]1)C(O)c1nc2ccc(F)cc2[nH]1 (stereo not drawn) [MLS001182368-01] the “Burkin Assay in Myoblasts, signal relative to DMSO” value ([1]; 0.5 uM) was 1.081, the “Burkin Assay in Myoblasts, signal relative to DMSO” value ([1]; 1 uM) was 1.215 and the “Burkin Assay in Myoblasts, signal relative to DMSO” value ([1]; 5 uM) was 0.914. For the same molecule, the “Burkin Assay in Myoblasts, signal relative to DMSO” value ([1]; 10 uM) was 0.8945, the “Burkin Assay in Myoblasts, signal relative to DMSO” value ([1]; 20 uM) was 1.001 and the “Burkin Assay in Myoblasts, signal relative to DMSO” value ([1]; 40 uM) was 0.8952. The “Burkin Assay in Myotubes, α7 integrin LacZ reporter signal relative to DMSO” value ([2]; 0.5 uM) was 1.044, the “Burkin Assay in Myotubes, α7 integrin LacZ reporter signal relative to DMSO” value ([2]; 1 uM) was 1.0792 and the “Burkin Assay in Myotubes, α7 integrin LacZ reporter signal relative to DMSO” value ([2]; 5 uM) was 1.2117. The “Burkin Assay in Myotubes, α7 integrin LacZ reporter signal relative to DMSO” value ([2]; 10 uM) was 1.02, the “Burkin Assay in Myotubes, α7 integrin LacZ reporter signal relative to DMSO” value ([2]; 20 uM) was 0.9097 and the “Burkin Assay in Myotubes, α7 integrin LacZ reporter signal relative to DMSO” value ([2]; 40 uM) was 0.9193. For the same molecule, the “CMV-LACZ in Myoblasts (β-galactosidase activity relative to DMSO)” value ([3]; 0.5 uM) was 0.9571, the “CMV-LACZ in Myoblasts (β-galactosidase activity relative to DMSO)” value ([3]; 1 uM) was 0.8783 and the “CMV-LACZ in Myoblasts (β-galactosidase activity relative to DMSO)” value ([3]; 5 uM) was 1.0528. For the same molecule, the “CMV-LACZ in Myoblasts (β-galactosidase activity relative to DMSO)” value ([3]; 10 uM) was 0.9225, the “CMV-LACZ in Myoblasts (β-galactosidase activity relative to DMSO)” value ([3]; 20 uM) was 1.2322 and the “CMV-LACZ in Myoblasts (β-galactosidase activity relative to DMSO)” value ([3]; 40 uM) was 1.1615. The “CMV-LACZ in Myotubes, signal relative to DMSO” value ([4]; 0.5 uM) was 0.8667, the “CMV-LACZ in Myotubes, signal relative to DMSO” value ([4]; 1 uM) was 1.0619 and the “CMV-LACZ in Myotubes, signal relative to DMSO” value ([4]; 5 uM) was 0.8931. The “CMV-LACZ in Myotubes, signal relative to DMSO” value ([4]; 10 uM) was 0.8690, the “CMV-LACZ in Myotubes, signal relative to DMSO” value ([4]; 20 uM) was 0.9953 and the “CMV-LACZ in Myotubes, signal relative to DMSO” value ([4]; 40 uM) was 1.0318.
